Results published in patent publication US8518952B2, “6 substituted 2-heterocyclylamino pyrazine compounds as CHK-1 inhibitors” (Pfizer Inc., priority 2008, dated 2013).
Structures can show the parent of a compound that is named as a salt.

Legend:
Mia Paca-2 cells = experiment: Histone H3 (Ser10) phosphorylation ELISA, abrogation of camptothecin-induced G2 arrest (CHK-1 cellular assay); type: cell-based; details: Homo sapiens, camptothecin 8 hrs, then compound with nocodozole 16 hours
Method: The Histone H3 phosphorylation ELISA assay detects cells entering mitosis and represents the primary in vitro cell-based assay used to measure the cellular potency of compounds in abrogating the G2 check point induced by DNA damage in HeLa cells or MiaPaCa cells. The candidate substances were assayed for potency in their ability to inhibit camptothecin-induced G2 arrest, as measured by an increase in Histone H3 phosphorylation on Ser10, a marker of entry into mitosis.
The PathScan Phospho-Histone H3 (Ser10) Sandwich ELISA kit was used (Cell Signaling, #7155) and the assay was performed according to manufacturer recommendations. Tissue culture plates were seeded with HeLa cells or MiaPaCa Cells and allowed to attach overnight. The cells were then treated with camptothecin to induce DNA damage for 8 hrs. Candidate substances or diluent were then added in the presence of nocodozole for 16 hours. Cells were then lysed with buffer from Assay Designs (#80-1114) supplemented with protease inhibitors and frozen overnight. The fresh whole cell lysates were then thawed and added to the ELISA plate with shaking for 3 hours. Between all subsequent steps plates were washed 4 times with PBST. Biotinylated phospho Histone H3 (ser10) detection antibody was added for 1 hour, followed by addition of horseradish peroxidase-linked streptavidin secondary antibody for 1 hour. Color development of the antibody was performed with addition of TMB substrate and incubation for 2 minutes on a plate shaker. Stop solution was added and plates were read with absorbance at 450 nm on a spectrophotometer. EC50 values were calculated by sigmoid curve fitting using a four-parameter analysis.
Under the “Ki” column, data entries in the format of “%” are percent inhibition data where no Ki data is available. Data entry under the “EC50” column with an * are data obtained using Mia Paca-2 cells rather than HeLa cells. Data is not available where noted as n/a.

CHK1 (kinase domain) = target: T1, CHK1 (kinase domain) (Homo sapiens, UniProt O14757); experiment: CHK1 Ki determination, spectrophotometric coupled (pyruvate kinase/lactate dehydrogenase) assay; type: biochemical; details: CHK-1 kinase domain; 150 uM ATP, 125 uM Syntide 2
T1 construct: a solution containing 1 nM of CHK1 (kinase domain)
T1 sequence (O14757 9-265 limits assumed): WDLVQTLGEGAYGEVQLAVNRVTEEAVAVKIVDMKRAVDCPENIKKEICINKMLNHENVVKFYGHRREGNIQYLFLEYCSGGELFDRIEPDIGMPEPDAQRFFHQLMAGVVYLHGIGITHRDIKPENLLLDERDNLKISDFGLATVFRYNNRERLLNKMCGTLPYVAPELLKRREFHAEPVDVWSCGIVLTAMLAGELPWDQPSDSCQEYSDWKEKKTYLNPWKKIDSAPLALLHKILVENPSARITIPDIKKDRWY
Procedure, shortened: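 Ki values, or % inhibition where no Ki was obtained, come from a tight-binding fit that uses active enzyme concentration and the ATP Km. Rates were followed as NADH loss at 340 nm, with ADP production coupled via pyruvate kinase and lactate dehydrogenase. Reactions with ATP (150 uM) and Syntide 2 (125 uM) were started after the CHK1 kinase domain had stood with inhibitor for 15 min.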

[1] = Mia Paca-2 cells (entries marked *)
[2] = MIA PaCa-2, Mia Paca-2 cells (entries marked *)

## Cc1cn2c(-c3cncc(N[C@@H]4CCCN[C@@H]4C)n3)cnc2cn1 [Example 285, 6-(6-methylimidazo[1,2-a]pyrazin-3-yl)-N-[(2R,3R)-2-methylpiperidin-3-yl]pyrazin-2-amine]
Mia Paca-2 cells; [1]
  EC50: 91 nM
CHK1 (kinase domain)
  Ki: 21.3 nM

## CC(C)c1cn2c(-c3cncc(N[C@@H]4CCCNC4)n3)cnc2s1 [Example 160, N-[(3R)-piperidin-3-yl]-6-[2-(propan-2-yl)imidazo[2,1-b][1,3]thiazol-5-yl]pyrazin-2-amine]
Mia Paca-2 cells; [1]
  EC50: 25.7 nM
CHK1 (kinase domain)
  Ki: 1.07 nM

## CC(C)(O)c1ccc2ncc(-c3cncc(N[C@@H]4CCCNC4)n3)n2c1 [Example 232, 2-(3-{6-[(3R)-piperidin-3-ylamino]pyrazin-2-yl}imidazo[1,2-a]pyridin-6-yl)propan-2-ol]
Mia Paca-2 cells; [2]
  EC50: 100 nM
CHK1 (kinase domain)
  Ki: 2.6 nM

## FC[C@@H]1CNC[C@@H]1Nc1cncc(-c2cnc3ccccn23)n1 [Example 130, N-[(3R,4R)-4-(fluoromethyl)pyrrolidin-3-yl]-6-imidazo[1,2-a]pyridin-3-ylpyrazin-2-amine]
Mia Paca-2 cells; [1]
  EC50: 139 nM
CHK1 (kinase domain)
  Ki: 4.86 nM

## COC[C@@H]1C[C@@H](Nc2cncc(-c3cnn4ccccc34)n2)CN1 [Example 261, N-[(3R,5S)-5-(methoxymethyl)pyrrolidin-3-yl]-6-(pyrazolo[1,5-a]pyridin-3-yl)pyrazin-2-amine]
Mia Paca-2 cells; [1]
  EC50: 37 nM
CHK1 (kinase domain)
  Ki: 14.9 nM

## FC1(F)CCNCC1Nc1cncc(-c2cnc3ccc(Cl)cn23)n1 (stereo not drawn) [Example 230, 6-(6-chloroimidazo[1,2-a]pyridin-3-yl)-N-(4,4-difluoropiperidin-3-yl)pyrazin-2-amine]
Mia Paca-2 cells; [2]
  EC50: 76.8 nM
CHK1 (kinase domain)
  Ki: 9.2 nM

## Clc1ccc2ncc(-c3cncc(N[C@@H]4CCCNC4)n3)n2c1 [Example 5, 6-(6-Chloroimidazo[1,2-a]pyridin-3-yl)-N-[(3R)-piperidin-3-yl]pyrazin-2-amine]
Mia Paca-2 cells; [2]
  EC50: 18.3 nM
CHK1 (kinase domain)
  Ki: 2.49 nM

## Cc1cn2c(-c3cncc(N[C@H]4CN[C@H](CO)C4)n3)cnc2s1 [Example 237, [(2S,4R)-4-{[6-(2-methylimidazo[2,1-b][1,3]thiazol-5-yl)pyrazin-2-yl]amino}pyrrolidin-2-yl]methanol]
Mia Paca-2 cells; [1]
  EC50: 46.7 nM
CHK1 (kinase domain)
  Ki: 2.98 nM

## CCCOC[C@@H]1C[C@@H](Nc2cncc(-c3cnc4ccccn34)n2)CN1 [Example 192, 6-(imidazo[1,2-a]pyridin-3-yl)-N-[(3R,5S)-5-(propoxymethyl)pyrrolidin-3-yl]pyrazin-2-amine]
Mia Paca-2 cells; [1]
  EC50: 187 nM
CHK1 (kinase domain)
  Ki: 29.2 nM

## CO[C@@H]1CCNC[C@H]1Nc1cncc(-c2cnc3ccccn23)n1 [Example 260, 6-(imidazo[1,2-a]pyridin-3-yl)-N-[(3R,4R)-4-methoxypiperidin-3-yl]pyrazin-2-amine (HCl salt)]
Mia Paca-2 cells; [2]
  EC50: 549 nM
CHK1 (kinase domain)
  Ki: 233 nM

## COc1ccn2c(-c3cncc(N[C@H]4C5CCN(CC5)[C@H]4C)n3)cnc2c1 [Example 265, (2S,3S)-N-[6-(7-methoxyimidazo[1,2-a]pyridin-3-yl)pyrazin-2-yl]-2-methyl-1-azabicyclo[2.2.2]octan-3-amine]
Mia Paca-2 cells; [1]
  EC50: 244 nM
CHK1 (kinase domain)
  Ki: 5.37 nM

## CCOc1cc2ncn(-c3cncc(N[C@@H]4CCCNC4)n3)c2cn1 [Example 258, 6-(6-ethoxy-3H-imidazo[4,5-c]pyridin-3-yl)-N-[(3R)-piperidin-3-yl]pyrazin-2-amine]
Mia Paca-2 cells; [1]
  EC50: 98.4 nM
CHK1 (kinase domain)
  Ki: 4.38 nM

## C[C@@H]1CCNC[C@@H]1Nc1cncc(-c2cnc3cc(Cl)ccn23)n1 [Example 205, 6-(7-chloroimidazo[1,2-a]pyridin-3-yl)-N-[(3R,4R)-4-methylpiperidin-3-yl]pyrazin-2-amine]
Mia Paca-2 cells; [2]
  EC50: 55.2 nM
CHK1 (kinase domain)
  Ki: 38.3 nM

## C[C@@H]1C[C@@H](Nc2cncc(-c3cnc4cc(C#N)ccn34)n2)CN1 [Example 189, 3-(6-{[(3R,5R)-5-methylpyrrolidin-3-yl]amino}pyrazin-2-yl)imidazo[1,2-a]pyridine-7-carbonitrile]
Mia Paca-2 cells; [1]
  EC50: 626 nM
CHK1 (kinase domain)
  Ki: 17.9 nM

## FC(F)(F)c1ccc2ncc(-c3cncc(N[C@@H]4CCNC4)n3)n2c1 [Example 13, N-[(3R)-pyrrolidin-3-yl]-6-[6-(trifluoromethyl)imidazo[1,2-a]pyridin-3-yl]pyrazin-2-amine]
Mia Paca-2 cells; [1]
  EC50: 513 nM
CHK1 (kinase domain)
  Ki: 12.8 nM

## C[C@@H]1CNC[C@@H]1Nc1cncc(-c2cnc3ccc(Cl)cn23)n1 [Example 229, 6-(6-chloroimidazo[1,2-a]pyridin-3-yl)-N-[(3R,4R)-4-methylpyrrolidin-3-yl]pyrazin-2-amine]
Mia Paca-2 cells; [1]
  EC50: 9.75 nM
CHK1 (kinase domain)
  Ki: 4.4 nM

## CO[C@@H]1CNC[C@@H](Nc2cncc(-c3cnc4ccccn34)n2)C1 [Example 250, 6-(imidazo[1,2-a]pyridin-3-yl)-N-[(3S,5S)-5-methoxypiperidin-3-yl]pyrazin-2-amine]
Mia Paca-2 cells; [2]
  EC50: 1620 nM
CHK1 (kinase domain)
  Ki: 48.8 nM

## COc1ccn2c(-c3cncc(N[C@H]4CNC[C@H]4C4CC4)n3)cnc2c1 [Example 211, N-[(3R,4R)-4-cyclopropylpyrrolidin-3-yl]-6-(7-methoxyimidazo[1,2-a]pyridin-3-yl)pyrazin-2-amine]
Mia Paca-2 cells; [2]
  EC50: 4.59 nM
CHK1 (kinase domain)
  Ki: 2.54 nM

## C[C@H]1NCCC[C@H]1Nc1cncc(-c2cnn3ccncc23)n1 [Example 252, N-[(2R,3R)-2-methylpiperidin-3-yl]-6-(pyrazolo[1,5-a]pyrazin-3-yl)pyrazin-2-amine, acetate salt]
Mia Paca-2 cells; [1]
  EC50: 1110 nM
CHK1 (kinase domain)
  Ki: 69.3 nM

## OC[C@@H]1C[C@@H](Nc2cncc(-c3cnc4cc(Cl)ccn34)n2)CN1 [Example 245, [(2S,4R)-4-{[6-(7-chloroimidazo[1,2-a]pyridin-3-yl)pyrazin-2-yl]amino}pyrrolidin-2-yl]methanol]
Mia Paca-2 cells; [1]
  EC50: 85.9 nM
CHK1 (kinase domain)
  Ki: 4.72 nM

## Fc1ccn2c(-c3cncc(N[C@@H]4CCCNC4)n3)cnc2c1 [Example 235, 6-(7-fluoroimidazo[1,2-a]pyridin-3-yl)-N-[(3R)-piperidin-3-yl]pyrazin-2-amine]
Mia Paca-2 cells; [2]
  EC50: 67.9 nM
CHK1 (kinase domain)
  Ki: 6.8 nM

## C[C@@H]1NCCC[C@H]1Nc1cncc(-c2cnc3ccc(Cl)cn23)n1 [Example 225, 6-(6-chloroimidazo[1,2-a]pyridin-3-yl)-N-[(2S,3R)-2-methylpiperidin-3-yl]pyrazin-2-amine]
Mia Paca-2 cells; [2]
  EC50: 64.9 nM
CHK1 (kinase domain)
  Ki: 17.9 nM

## CC1(COc2ccn3c(-c4cncc(N[C@@H]5CCNC5)n4)cnc3c2)COC1 [Example 154, 6-{7-[(3-methyloxetan-3-yl)methoxy]imidazo[1,2-a]pyridin-3-yl}-N-[(3R)-pyrrolidin-3-yl]pyrazin-2-amine]
Mia Paca-2 cells; [1]
  EC50: 602 nM
CHK1 (kinase domain)
  Ki: 3.9 nM

## C[C@H]1NCCC[C@H]1Nc1cncc(-c2cnc3cnccn23)n1 [Example 163, 6-(imidazo[1,2-a]pyrazin-3-yl)-N-[(2R,3R)-2-methylpiperidin-3-yl]pyrazin-2-amine]
Mia Paca-2 cells; [1]
  EC50: 248 nM
CHK1 (kinase domain)
  Ki: 14 nM

## CC(C)OC[C@@H]1C[C@@H](Nc2cncc(-c3cnc4ccccn34)n2)CN1 [Example 158, 6-(imidazo[1,2-a]pyridin-3-yl)-N-{(3R,5S)-5-[(propan-2-yloxy)methyl]pyrrolidin-3-yl}pyrazin-2-amine]
Mia Paca-2 cells; [1]
  EC50: 129 nM
CHK1 (kinase domain)
  Ki: 49.8 nM

## COC[C@@H]1C[C@@H](Nc2cncc(-c3cnc4cc(C)ccn34)n2)CN1 [Example 239, N-[(3R,5S)-5-(methoxymethyl)pyrrolidin-3-yl]-6-(7-methylimidazo[1,2-a]pyridin-3-yl)pyrazin-2-amine]
Mia Paca-2 cells; [1]
  EC50: 201 nM
CHK1 (kinase domain)
  Ki: 72.2 nM

## Cc1cn2c(-c3cncc(N[C@@H]4CCCNC4)n3)cnc2cn1 [Example 135, 6-(6-methylimidazo[1,2-a]pyrazin-3-yl)-N-[(3R)-piperidin-3-yl]pyrazin-2-amine]
Mia Paca-2 cells; [1]
  EC50: 208 nM
CHK1 (kinase domain)
  Ki: 12.6 nM

## COc1cc2c(cn1)ncn2-c1cncc(N[C@@H]2CCCNC2)n1 [Example 17, 6-(6-methoxy-1H-imidazo[4,5-c]pyridin-1-yl)-N-[(3R)-piperidin-3-yl]pyrazin-2-amine]
Mia Paca-2 cells; [1]
  EC50: 59.5 nM
CHK1 (kinase domain)
  Ki: 6.41 nM

## Fc1ccc2ncc(-c3cncc(N[C@@H]4CCCNC4)n3)n2c1 [Example 87, 6-(6-fluoroimidazo[1,2-a]pyridin-3-yl)-N-[(3R)-piperidin-3-yl]pyrazin-2-amine]
Mia Paca-2 cells; [2]
  EC50: 127 nM
CHK1 (kinase domain)
  Ki: 8.63 nM

## C[C@@H]1CNC[C@@H]1Nc1cncc(-c2cnc3sccn23)n1 [Example 181, 6-(imidazo[2,1-b][1,3]thiazol-5-yl)-N-[(3R,4R)-4-methylpyrrolidin-3-yl]pyrazin-2-amine]
Mia Paca-2 cells; [1]
  EC50: 26.1 nM
CHK1 (kinase domain)
  Ki: 7.2 nM
